{
  "source": "paper PMC10711165",
  "about": "“DNA conformational dynamics in the context-dependent non-CG CHH methylation by plant methyltransferase DRM2” (The Journal of Biological Chemistry, 2023)",
  "molecular_target": "T1, DRM2 MTase domain (DOMAINS REARRANGED METHYLTRANSFERASE 2) (Arabidopsis thaliana, UniProt Q9M548)",
  "T1 construct": "MTase domain, residues 270-626, His6-SUMO tag cleaved by ULP1, expressed in E. coli BL21 DE3 (RIL); residues 275-626 traced in crystal",
  "T1 sequence (Q9M548 270-626)": "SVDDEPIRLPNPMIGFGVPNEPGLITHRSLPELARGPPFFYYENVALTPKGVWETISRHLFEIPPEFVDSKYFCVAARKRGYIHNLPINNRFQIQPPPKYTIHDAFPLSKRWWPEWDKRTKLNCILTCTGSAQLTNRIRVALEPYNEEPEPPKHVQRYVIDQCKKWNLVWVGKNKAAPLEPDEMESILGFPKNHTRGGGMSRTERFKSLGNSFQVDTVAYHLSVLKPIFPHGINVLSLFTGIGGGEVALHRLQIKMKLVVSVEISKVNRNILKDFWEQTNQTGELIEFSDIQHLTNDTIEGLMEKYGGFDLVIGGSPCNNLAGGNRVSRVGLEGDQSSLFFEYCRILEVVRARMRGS",
  "assay": "X-ray crystallography, […] A",
  "type": "binding",
  "details": "covalent complex of protein C587 with 18-mer 5-fluorocytosine CTA DNA duplex; SAH at the cofactor site; crystals at 4 °C, 1 mM SAH",
  "data": [
    {"smiles": "Nc1ncnc2c1ncn2[C@@H]1O[C@H](CSCC[C@H](N)C(=O)O)[C@@H](O)[C@H]1O", "note": "[S-adenosyl-homocysteine]", "values": [
      {"measurement": "X-ray crystallography, 2.91 A", "result": "The crystal structure of the DRM2-CTA complex bound to cofactor by-product S-adenosyl-homocysteine (SAH)"}
    ]}
  ]
}
